As usually defined, the IC50 is the concentration that gives 50% inhibition.

Results on two molecules are retold here after article PMC6810216, “Human-to-Human Transmission of Influenza A(H3N2) Virus with Reduced Susceptibility to Baloxavir, Japan, February 2019” (Emerging Infectious Diseases, 2019).

For experiment [1], the system named is influenza A(H3N2) viruses isolated in the 2018–19 season in Japan. As to the kind of experiment: microbe, parasite or virus in culture. The class given is cell-based. The conditions noted are these: n = 83, read-out: Median IC50 + SD.
The target in experiment [2] is neuraminidase (NA) of A(H3N2) of 2018–19 (Influenza A virus (H3N2), UniProt A0A193ACB1). Format: biochemical. The conditions noted are these: n = 170; read-out: Median IC50 + SD.

For `O=C1c2c(O)c(=O)ccn2N([C@@H]2c3ccccc3SCc3c2ccc(F)c3F)[C@@H]2COCCN12` [Baloxavir, baloxavir acid], in experiment [1], the IC50 amounted to […].

For the molecule `CCC(CC)[C@H](NC(C)=O)[C@@H]1[C@H](O)[C@@H](C(=O)O)C[C@H]1N=C(N)N` [Peramivir, peramivir], the IC50 in experiment [2] came to 0.13 nM.
